From article PMC4599001, “Selective Irreversible Inhibition of Neuronal and Inducible Nitric-oxide Synthase in the Combined Presence of Hydrogen Sulfide and Nitric Oxide” (The Journal of Biological Chemistry, 2015)
“And” between values parts separate entries of the source, which are not always exact repeats. Equal entries are not always repeated. “Also recorded” adds a separate entry of the source. Where two headings read alike, the source gives them in different places.

What was measured:
nNOS [1] = biological target: T1, nNOS (Homo sapiens, UniProt P29475); assay: NADPH oxidation by nNOS (340 nm); assay type: biochemical
[2] = cited from earlier work; for t1/2 of NO release: ref 35
nNOS [3] = biological target: T1, nNOS; settings: for ActH2S, specific activity (citrulline formation) / Inhibition / vNO^H2S, NO formation rate: 0.5 mM H2S
nNOS [4] = settings: read-out: IC50, inhibition of nNOS, cited from earlier work
eNOS [5] = biological target: T2, eNOS (Homo sapiens, UniProt P29474); assay: NADPH oxidation by eNOS (340 nm); assay type: biochemical; settings: +Arg, +BH4, without Na2S
nNOS [6] = biological target: T1, nNOS
eNOS [7] = biological target: T2, eNOS
nNOS [8] = biological target: T1, nNOS; assay type: binding
nNOS [9] = biological target: T1, nNOS; assay type: biochemical
mouse macrophage iNOS = biological target: T3, mouse macrophage iNOS (Mus musculus, UniProt P29477); assay type: biochemical; settings: pH 7.4; read-out: IC50, citrulline formation by iNOS
T3 construct: made in house; host or cells: Escherichia coli

eNOS [10] = biological target: T2, eNOS; assay type: biochemical; settings: for ActH2S, specific activity (citrulline formation) / Inhibition / vNO^H2S, NO formation rate: 0.5 mM H2S
Target sequence in this assay (P29474 2-1203): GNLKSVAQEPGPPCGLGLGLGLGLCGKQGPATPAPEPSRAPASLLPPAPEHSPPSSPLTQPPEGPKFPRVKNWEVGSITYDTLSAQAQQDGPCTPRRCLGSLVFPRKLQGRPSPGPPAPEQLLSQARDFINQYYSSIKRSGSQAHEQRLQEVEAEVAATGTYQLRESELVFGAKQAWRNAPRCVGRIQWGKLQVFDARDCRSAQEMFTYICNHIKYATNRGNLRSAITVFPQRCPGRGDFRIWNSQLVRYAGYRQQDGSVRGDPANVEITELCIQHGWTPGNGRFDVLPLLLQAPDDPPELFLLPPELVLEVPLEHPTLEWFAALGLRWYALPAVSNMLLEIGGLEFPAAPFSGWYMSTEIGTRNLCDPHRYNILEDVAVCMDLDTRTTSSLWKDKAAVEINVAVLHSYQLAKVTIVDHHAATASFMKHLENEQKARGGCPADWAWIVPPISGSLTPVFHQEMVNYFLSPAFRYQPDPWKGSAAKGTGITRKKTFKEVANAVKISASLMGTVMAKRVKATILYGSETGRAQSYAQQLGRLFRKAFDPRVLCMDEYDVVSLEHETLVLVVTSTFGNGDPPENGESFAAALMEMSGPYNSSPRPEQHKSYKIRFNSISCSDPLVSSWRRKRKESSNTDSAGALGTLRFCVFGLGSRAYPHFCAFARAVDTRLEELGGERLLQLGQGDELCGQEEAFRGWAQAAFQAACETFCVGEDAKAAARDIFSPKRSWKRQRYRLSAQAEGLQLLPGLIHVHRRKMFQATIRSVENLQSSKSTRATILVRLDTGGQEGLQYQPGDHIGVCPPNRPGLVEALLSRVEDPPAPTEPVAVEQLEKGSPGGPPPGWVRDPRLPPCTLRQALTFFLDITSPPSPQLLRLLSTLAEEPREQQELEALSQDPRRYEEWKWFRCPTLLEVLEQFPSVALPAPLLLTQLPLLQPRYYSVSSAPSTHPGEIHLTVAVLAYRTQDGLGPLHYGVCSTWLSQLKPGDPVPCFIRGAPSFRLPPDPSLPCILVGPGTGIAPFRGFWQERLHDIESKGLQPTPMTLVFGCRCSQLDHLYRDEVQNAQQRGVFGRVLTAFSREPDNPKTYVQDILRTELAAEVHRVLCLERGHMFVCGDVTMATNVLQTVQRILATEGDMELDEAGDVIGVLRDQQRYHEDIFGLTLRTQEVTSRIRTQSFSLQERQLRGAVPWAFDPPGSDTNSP

[11] = 37 °C; cited from earlier work

T1 sequence (P29475 whole entry): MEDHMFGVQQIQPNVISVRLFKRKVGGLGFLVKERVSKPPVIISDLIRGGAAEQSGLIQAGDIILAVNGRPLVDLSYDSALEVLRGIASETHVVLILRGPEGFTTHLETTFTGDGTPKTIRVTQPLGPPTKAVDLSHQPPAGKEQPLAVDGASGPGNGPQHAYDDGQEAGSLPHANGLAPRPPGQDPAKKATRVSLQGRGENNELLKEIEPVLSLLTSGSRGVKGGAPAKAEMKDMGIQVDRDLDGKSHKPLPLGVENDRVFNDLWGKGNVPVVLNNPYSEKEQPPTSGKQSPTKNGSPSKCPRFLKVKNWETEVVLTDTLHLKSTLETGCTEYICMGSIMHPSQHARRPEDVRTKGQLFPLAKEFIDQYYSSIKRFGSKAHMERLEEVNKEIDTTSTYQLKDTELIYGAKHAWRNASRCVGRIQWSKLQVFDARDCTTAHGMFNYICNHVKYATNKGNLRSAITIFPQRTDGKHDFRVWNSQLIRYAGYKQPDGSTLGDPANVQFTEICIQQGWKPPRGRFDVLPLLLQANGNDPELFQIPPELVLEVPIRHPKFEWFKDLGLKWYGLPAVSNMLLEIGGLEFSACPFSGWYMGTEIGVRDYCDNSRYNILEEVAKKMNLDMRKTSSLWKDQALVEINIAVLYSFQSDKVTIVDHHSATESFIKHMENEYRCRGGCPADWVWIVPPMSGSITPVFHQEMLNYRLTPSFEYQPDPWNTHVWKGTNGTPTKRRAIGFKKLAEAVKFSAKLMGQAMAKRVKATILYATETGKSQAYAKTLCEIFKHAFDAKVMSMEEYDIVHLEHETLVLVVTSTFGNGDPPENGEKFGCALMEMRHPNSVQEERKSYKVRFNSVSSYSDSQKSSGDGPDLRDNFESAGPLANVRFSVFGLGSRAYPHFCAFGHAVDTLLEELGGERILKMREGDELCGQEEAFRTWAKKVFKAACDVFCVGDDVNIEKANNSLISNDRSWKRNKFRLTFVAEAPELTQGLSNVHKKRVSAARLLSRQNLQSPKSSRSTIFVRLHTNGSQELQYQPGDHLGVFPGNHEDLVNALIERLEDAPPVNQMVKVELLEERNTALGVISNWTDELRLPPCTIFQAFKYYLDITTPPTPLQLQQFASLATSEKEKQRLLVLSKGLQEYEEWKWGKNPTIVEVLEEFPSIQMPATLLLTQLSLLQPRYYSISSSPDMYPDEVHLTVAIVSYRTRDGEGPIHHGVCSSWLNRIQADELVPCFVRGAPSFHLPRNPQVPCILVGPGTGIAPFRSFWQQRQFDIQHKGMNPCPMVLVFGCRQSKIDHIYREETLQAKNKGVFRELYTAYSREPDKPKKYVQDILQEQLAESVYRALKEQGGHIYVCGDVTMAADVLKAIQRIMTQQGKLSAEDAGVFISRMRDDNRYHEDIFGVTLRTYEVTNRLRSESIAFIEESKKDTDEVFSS
T3 sequence (P29477 whole entry): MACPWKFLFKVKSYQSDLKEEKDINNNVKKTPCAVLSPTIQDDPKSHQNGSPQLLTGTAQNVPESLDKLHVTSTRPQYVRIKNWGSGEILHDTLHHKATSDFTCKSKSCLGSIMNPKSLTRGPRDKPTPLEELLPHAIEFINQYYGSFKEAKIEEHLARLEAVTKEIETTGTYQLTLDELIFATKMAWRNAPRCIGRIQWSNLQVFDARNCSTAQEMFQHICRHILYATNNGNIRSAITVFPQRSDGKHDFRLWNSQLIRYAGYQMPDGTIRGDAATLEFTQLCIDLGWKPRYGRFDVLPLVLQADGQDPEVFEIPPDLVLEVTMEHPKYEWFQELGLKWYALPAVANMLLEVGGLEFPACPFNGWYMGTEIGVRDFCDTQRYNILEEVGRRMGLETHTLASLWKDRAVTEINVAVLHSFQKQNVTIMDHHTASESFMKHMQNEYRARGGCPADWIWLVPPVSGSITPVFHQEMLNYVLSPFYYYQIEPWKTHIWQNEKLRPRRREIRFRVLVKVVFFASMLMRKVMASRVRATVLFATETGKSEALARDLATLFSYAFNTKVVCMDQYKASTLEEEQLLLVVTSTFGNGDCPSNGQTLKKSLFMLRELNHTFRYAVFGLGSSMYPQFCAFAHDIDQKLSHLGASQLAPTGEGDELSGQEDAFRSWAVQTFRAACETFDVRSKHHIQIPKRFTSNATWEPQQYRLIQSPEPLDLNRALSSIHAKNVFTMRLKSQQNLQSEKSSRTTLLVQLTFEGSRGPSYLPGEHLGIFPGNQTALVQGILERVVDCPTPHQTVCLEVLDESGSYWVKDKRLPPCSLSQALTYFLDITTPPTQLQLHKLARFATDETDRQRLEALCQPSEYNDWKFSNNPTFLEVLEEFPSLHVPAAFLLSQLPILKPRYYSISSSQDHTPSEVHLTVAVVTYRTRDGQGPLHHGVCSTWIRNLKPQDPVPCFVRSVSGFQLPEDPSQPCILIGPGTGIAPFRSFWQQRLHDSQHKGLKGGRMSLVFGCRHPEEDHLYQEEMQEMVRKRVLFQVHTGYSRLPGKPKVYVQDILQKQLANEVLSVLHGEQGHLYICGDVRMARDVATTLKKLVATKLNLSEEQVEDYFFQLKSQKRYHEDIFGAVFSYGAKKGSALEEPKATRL

Question: Which IC50 (nNOS [1]; absence of BH4, with Na2S, after 10 min, read-out: Apparent IC50, potentiation of the inhibitory effect of Na2S on NADPH oxidation by nNOS) does the source give for `NCCCNCCCCN(CCCN)/[N+]([O-])=N/O` [SPER/NO, (Z)-1-[N-[3-aminopropyl]-N-[4-(3-aminopropylammonio)butyl]amino]diazen-1-ium-1,2-diolate] here?
Answer: 106 µM

Question: What about the “t1/2 of NO release” value [2] of the same compound?
Answer: ~30 min

Question: For `[Na+].[Na+].[O-][N+]([O-])=NO` [Angeli's salt, disodium diazen-1-ium-1,2,2-triolate], which “Reversal of inhibition by thiols” value (nNOS [3]; 10 mM GSH or 2 mM DTT present) is on record?
Answer: completely reversed in the presence of thiols

Question: And the IC50 (nNOS [3]; read-out: IC50, citrulline formation by nNOS, Angeli's salt as HNO donor, 50 mM TEA pH 7.4, 10 min, 37 °C)?
Answer: 190 µM

Question: What does the source list for `O[C@@H](CS)[C@@H](O)CS` [DTT]?
Answer: IC50 (nNOS [4]; ref 16): 13200 µM; IC50 (nNOS [4]; ref 27): 160 µM

Question: For `O=C([O-])[C@@H]1CCCN1[N+]([O-])=NO.O=C([O-])[C@@H]1CCCN1[N+]([O-])=NO.[Na+].[Na+]` [PROLI/NO, 1-(hydroxy-NNO-azoxy)-L-proline, disodium salt], which IC50 (nNOS [1]; +Arg, −BH4, in the absence of Na2S, read-out: IC50, NADPH oxidation by nNOS) is on record?
Answer: ~80 µM

Question: And the IC50 (nNOS [1]; +Arg, −BH4, in the presence of 10 μM Na2S, read-out: IC50, NADPH oxidation by nNOS)?
Answer: ~10 µM

Question: And the IC50 (eNOS [5])?
Answer: 100 µM

Question: And the “t1/2 of NO release” value [2]?
Answer: 0.017 to 0.033 min

Question: For `[Na+].[Na+].[S-2]` [Na2S, sodium sulfide], which “Dimeric enzyme, gel filtration” value (nNOS [6]) is on record?
Answer: ~55%

Question: What about the “Dimer/monomer ratio of eNOS” value (eNOS [7]) of the same compound?
Answer: not affected by Na2S at all

Question: And the “Extent of spectral transition to thiol complex” value (nNOS [8])?
Answer: approximately 50%

Question: And the “Decrease of nNOS activity after dilution” value (nNOS [9])?
Answer: approximately 70%

Question: What about the “Reversal of inhibition by thiols” value (nNOS [9]) of the same compound?
Answer: none of these thiols restored the activity

Question: And the “nNOS activity after dilution” value (nNOS [9])?
Answer: not affected

Question: What about the “Effect of thiols on IC50 of inhibition of citrulline formation” value (nNOS [3]) of the same compound?
Answer: none of these thiols had any impact on IC50 values

Question: And the nNOS activity blocked (nNOS [3])?
Answer: ~90%

Question: What about the “pKa from plot of IC50 against pH” value (nNOS [3]) of the same compound?
Answer: 7.310 ± 0.014

Question: And the IC50 (nNOS [3]; read-out: IC50, citrulline formation by nNOS)?
Answer: 23 µM

Question: And the IC50 (nNOS [3]; read-out: IC50, citrulline formation by nNOS, pH 6)?
Answer: ~15 µM and 15 µM

Question: And the IC50 (nNOS [3]; read-out: IC50, citrulline formation by nNOS, pH 7.4)?
Answer: ~24 µM and 24 µM and 31 µM

Question: What about the IC50 (nNOS [3]; read-out: IC50, citrulline formation by nNOS, pH 8) of the same compound?
Answer: ~83 µM and 83 µM

Question: What about the IC50 (mouse macrophage iNOS) of the same compound?
Answer: ~79 µM and 79 µM

Question: What about the “Effect on eNOS activity” value (eNOS [10]) of the same compound?
Answer: hardly affected

Question: What about the “Effect on citrulline formation by eNOS” value (eNOS [10]; pH 7.4) of the same compound?
Answer: hardly affected at all; also recorded: only marginally affected

Question: With `S` [H2S, hydrogen sulfide] as the compound, how does the IC50 (nNOS [1]; Arg and/or BH4 omitted, no NO (span over conditions), read-out: IC50, reversible inhibition of nNOS by H2S alone) read?
Answer: 100 to 600 µM

Question: What about the “Decrease of nNOS activity after dilution” value (nNOS [9]; preincubation with 0.5 mM Na2S under turnover conditions (+CaM), 150-fold dilution) of the same compound?
Answer: ~70%

Question: What about the “nNOS activity after dilution” value (nNOS [9]; preincubation with 0.5 mM Na2S, CaM omitted during preincubation) of the same compound?
Answer: activity was not affected

Question: And the “ActH2S, specific activity (citrulline formation)” value (from here on “ActH2S, specific activity”) (nNOS [3]; nNOS 0.5 μg/ml)?
Answer: 53 ± 26 nmol/mg/min

Question: And the Inhibition (nNOS [3]; nNOS 0.5 μg/ml)?
Answer: 86 ± 7%

Question: And the “vNO^H2S, NO formation rate” value (nNOS [3]; nNOS 0.5 μg/ml)?
Answer: 0.026 ± 0.013 µM/min

Question: What about the “ActH2S, specific activity” value (nNOS [3]; nNOS 2.0 μg/ml) of the same compound?
Answer: 31 ± 8 nmol/mg/min

Question: What about the Inhibition (nNOS [3]; nNOS 2.0 μg/ml) of the same compound?
Answer: 92 ± 2%

Question: What about the “vNO^H2S, NO formation rate” value (nNOS [3]; nNOS 2.0 μg/ml) of the same compound?
Answer: 0.062 ± 0.016 µM/min

Question: And the “ActH2S, specific activity” value (nNOS [3]; nNOS 10.0 μg/ml)?
Answer: 24 ± 2 nmol/mg/min

Question: What about the Inhibition (nNOS [3]; nNOS 10.0 μg/ml) of the same compound?
Answer: 92 ± 1%

Question: And the “vNO^H2S, NO formation rate” value (nNOS [3]; nNOS 10.0 μg/ml)?
Answer: 0.24 ± 0.02 µM/min

Question: What about the “ActH2S, specific activity” value (nNOS [3]; nNOS 15.0 μg/ml) of the same compound?
Answer: 29 ± 2 nmol/mg/min

Question: What about the Inhibition (nNOS [3]; nNOS 15.0 μg/ml) of the same compound?
Answer: 91 ± 1%

Question: And the “vNO^H2S, NO formation rate” value (nNOS [3]; nNOS 15.0 μg/ml)?
Answer: 0.44 ± 0.03 µM/min

Question: And the “ActH2S, specific activity” value (eNOS [10]; eNOS 2.0 μg/ml)?
Answer: 98 ± 12 nmol/mg/min

Question: And the Inhibition (eNOS [10]; eNOS 2.0 μg/ml)?
Answer: 24 ± 16%

Question: What about the “vNO^H2S, NO formation rate” value (eNOS [10]; eNOS 2.0 μg/ml) of the same compound?
Answer: 0.20 ± 0.02 µM/min

Question: And the “ActH2S, specific activity” value (eNOS [10]; eNOS 10.0 μg/ml)?
Answer: 134 ± 16 nmol/mg/min

Question: And the Inhibition (eNOS [10]; eNOS 10.0 μg/ml)?
Answer: 16 ± 12%

Question: And the “vNO^H2S, NO formation rate” value (eNOS [10]; eNOS 10.0 μg/ml)?
Answer: 1.34 ± 0.16 µM/min

Question: And the “ActH2S, specific activity” value (eNOS [10]; eNOS 15.0 μg/ml)?
Answer: 146 ± 19 nmol/mg/min

Question: And the Inhibition (eNOS [10]; eNOS 15.0 μg/ml)?
Answer: 5 ± 14%

Question: And the “vNO^H2S, NO formation rate” value (eNOS [10]; eNOS 15.0 μg/ml)?
Answer: 2.2 ± 0.3 µM/min

Question: What about the “ActH2S, specific activity” value (eNOS [10]; eNOS 30.0 μg/ml) of the same compound?
Answer: 136 ± 38 nmol/mg/min

Question: What about the Inhibition (eNOS [10]; eNOS 30.0 μg/ml) of the same compound?
Answer: −6 ± 35%

Question: And the “vNO^H2S, NO formation rate” value (eNOS [10]; eNOS 30.0 μg/ml)?
Answer: 4.1 ± 1.1 µM/min

Question: What about the “pKa of the H2S/HS− equilibrium” value [11] of the same compound?
Answer: 6.76

Question: What does the source list for `C1COCCN1.COc1ccc(P(=S)(S)N2CCOCC2)cc1` (centres unmarked) [GYY4137]?
Answer: IC50 (nNOS [3]; read-out: Apparent IC50, citrulline formation by nNOS): 2200 µM; t½ of H2S release ([2]; ref 34): ~415 min
